# Test results as given in US20130236527A1, “LICORICE LOLLIPOP THAT INHIBITS DENTAL CARIES FORMATION” (INTELLIHERB, LLC, priority 2008, published 2013).
# How the values were obtained:
# [1] = test system: S. mutans; experiment: anti-S. mutans bioactivity examination of extract batches; type: cell-based, Streptococcus mutans
# Excerpt: In addition to chemical analysis, all batches, or statistically relevant samples of continuous production processes (e.g., 1/3600 candies; or 1/5000 candies; or 1/10,000 candies or the like) or statistically relevant samples of candy production batches (e.g., 1/10 batches; or 1/20 batches; or 1/50 batches), are examined for bioactivity. While the pure compound of glycyrrhizol A has anti-S. mutans activity at 1 microgram per ml, the mixed compound usually has anti-S. mutans activity at 10-30 microgram per ml.
# [2] = test system: bacterial adherence; experiment: inhibition of bacterial adherence / dental caries formation
Compound,anti-S. mutans activity at (concentration) [1] [microgram per ml],inhibition of dental caries formation by inhibiting bacterial adherence [2]
COc1c(CC=C(C)C)c(O)cc2c1-c1oc3cc(O)c(CC=C(C)C)cc3c1CO2 [Glycyrrhizol A],1,–
CC1(C)[C@@H](O[C@H]2O[C@H](C(=O)O)[C@@H](O)[C@H](O)[C@H]2O[C@@H]2O[C@H](C(=O)O)[C@@H](O)[C@H](O)[C@H]2O)CC[C@]2(C)[C@H]3C(=O)C=C4[C@@H]5C[C@@](C)(C(=O)O)CC[C@]5(C)CC[C@@]4(C)[C@]3(C)CC[C@@H]12 [glycyrrhizin],–,can inhibit formation of dental caries by inhibiting bacterial adherence
